Consider nine substances from publication PMC11079029, “Intramolecular autoinhibition regulates the selectivity of PRPF40A tandem WW domains for proline-rich motifs” (Nature Communications, 2024).

The test system of experiment [1] is GFP-tagged PRPF40A-Nter-MUT. As to the kind of experiment: SILAC GFP-immunoprecipitation with quantitative mass spectrometry, mutant construct. The conditions noted are these: quantitative MS, Hela cells, protein by gene name. The format is binding, human (Hela cells). The protocol: The PRPF40A N-terminal region (isoform 2, residues 1-221) was PCR-amplified from RPE1 cDNA (ATCC, Cat# CRL-4000) cDNA. The sequence was amplified in two fragments and both fragments were combined by overhang. All PCRs were carried out using Q5 Polymerase (NEB) according to manufacturer’s protocol. The resulting PRPF40A N-terminal region was cloned into a GFP-expressing pcDNA5 vector (see pcDNA5 GFP vector in ref. [28]) using Q5 Site-Directed Mutagenesis Kit (NEB). Nter-MUT, containing the PPVP/PALPP motifs changed to AAAA/AAAAA, was obtained by mutating the N-ter-WW12-containing plasmid with Q5 site-directed mutagenesis. Plasmids were transformed into DH5alpha chemically competent cells. After culturing, DNA isolation was performed with either ZymoPURE Plasmid Miniprep Kit (Zymo Research) or QIAGEN Plasmid Plus Midi Kit (Qiagen). The sequence was confirmed by Sanger Sequencing (GATC Eurofins). All used oligonucleotides are shown in Supplementary Table 6.
Hela cells (ATCC, Cat# CCL-2, RRID:CVCL_0030) were cultured in DMEM SILAC medium (Thermo Fisher) supplemented with 10% filtered FBS (Sigma-Aldrich) and 1% penicillin-streptomycin (Thermo-Fisher). The SILAC medium contains either light (Arg0, Lys0), medium (Arg6, Lys4) or heavy (Arg10, Lys8) isotopes (Cambridge Isotopes Laboratories). Hela cells were cultivated for 14 days in SILAC medium to assure sufficient isotope incorporation. For transfection, 7 × 10^6 Hela cells were seeded in a 15 cm culture dish in 20 ml of respective SILAC medium and grown for 24 h. The cells were then transfected with 20 µg of plasmids expressing either GFP (Control), GFP-tagged N-ext-WW12 or GFP-tagged-N-ext-WW12-MUT utilizing 64 µl FuGENE (Promega) (ratio 1:3.2), according to manufacturer’s protocol.
24 h post-transfection, cells were washed twice in ice-cold PBS and harvested in 1 ml mRIPA buffer (50 mM Tris, 150 mM NaCl, 1 mM EDTA, 1% NP-40, 0.1% Na-deoxycholate), supplemented with 2 µl Turbo-DNase (Thermo Fisher) and 3 µl protease-inhibitor cocktail cOmplete (Sigma-Aldrich). Cell lysates were cleared by centrifugation at 16,000 × g, 4 °C, 15 min and concentration was measured using Pierce BCA Protein Assay kit (Thermo Scientific). The expressed constructs were pulled down by incubating 2.5 mg of lysate with 20 μl GFP-nanobody agarose beads (ChromoTek, GTA-20) for 1 h at 4 °C under constant agitation. Subsequently, beads were washed three times with mRIPA buffer without supplements, then eluted in 1X NuPAGE LDS sample buffer (Thermo Scientific). To detach the proteins from the beads, the eluate was heated to 70 °C for 10 min To evaluate the success of the immunoprecipitation, input (1%) and IP samples were analyzed on a NuPAGE 4–12% Bis-Tris-Acrylamide gel (Thermo Fisher) using NuPAGE MOPS SDS running buffer (Thermo Fisher). Proteins were stained using Sypro Ruby protein gel stain (Thermo Fisher) according to manufacturer’s protocol.
The eluted proteins of three SILAC states (light, medium, heavy) were combined. The proteins were then reduced in DTT, alkylated in iodoacetamide, and purified using the SP3 paramagnetic bead approach. This was followed by overnight enzymatic digestion using trypsin (1 µg per sample) in 50 mM ammonium bicarbonate at 37 °C. The peptide solution was then purified by solid phase extraction in C18 StageTips[99].
Peptides were separated by online reverse phase liquid chromatography using the EASY-nLC 1000 system (Thermo Scientific) in a 30-cm analytical column (inner diameter: 75 μm; heated at 50 °C) packed in-house with ReproSil-Pur 120 C18-AQ 1.9-μm beads (Dr. Maisch GmbH). The gradient separation was performed through a 105-min non-linear gradient of 1.6–32% acetonitrile with 0.1% formic acid at a nanoflow rate of 225 nl/min. The eluted peptides were sprayed directly by electrospray ionization into a Q Exactive Plus Orbitrap mass spectrometer (Thermo Scientific). […]

Experiment [2] has as its target T1, PRPF40A WW12 (tandem WW domains, residues 141–236) (Homo sapiens, UniProt O75400).
T1 construct: WW12 141–236, WW12long 141–248, and N-ext-WW12 56–236; 6xHis-TEV site (N, cleaved yes); made in house; host or cells: Escherichia coli BL21(DE3)
Nature of the experiment: ITC of PRPF40A WW12 with GB1-tagged proline-rich peptides and constructs. The format is binding. The following applies: for Kd: ITC. An excerpt:
PRPF40A isoform 1 sequences (N-ter 1–310, WW12short 141–223, WW12 141–236, WW12long 141–248, and N-ext-WW12 56–236) were amplified from a purchased DNA fragment (IDT) and cloned using NcoI and KpnI restriction sites into a pETM11 vector encoding 6xHis and TEV cleavage site as a N-terminal tag. SF1 (Pro A 410–468, Pro B 468–539, Pro C 539–594, Pro D 594–639, Pro BC 468–594, Pro CD 539–639, Pro BCD 468–639 and Pro ABCD 410–639) and SF3A1 (Middle Pro 364–413 and C-ter Pro 552–683) constructs were prepared in a similar manner using a pET24 vector with a 6xHis, GB1 and TEV cleavage site as N-terminal fusion cassette. 16-mer SF1 constructs (Table 1) and polyproline peptides (P6, P8, P10, P13, P16, P19, P22, P25, and P29) were cloned in the same pET24 vector with GB1 tag by direct ligation of purchased oligonucleotides (Eurofins). All peptide sequences contained N and C-terminal common residues to avoid boundary effects on binding: TEVsite-GAMSGS-peptide-SGSN. Mutants of PRPF40A WW12 and N-ext-WW12 constructs were prepared by site-directed mutagenesis. The truncated version of PRPF40A WW12 (141-217) was a gift from Dr. María Macías (IRB, Spain). All used oligonucleotides were purchased from Eurofins Genomics and are shown in Supplementary Table 6.
Resuspended cell pellets in 20 mM Tris pH 8.0, 500 mM NaCl, 10 mM imidazole, 0.5 mM TCEP, and protease inhibitors mix (SERVA) were lysed by cell disruption in a French press. Clear lysates, after centrifugation (at 18,000 g) and filtering, were loaded into Ni-NTA resin. The resin was then washed with 20 mM imidazole containing buffer, and the desired protein was eluted with 500 mM imidazole. PRPF40A constructs were then subjected to TEV protease treatment (homemade at a final concentration of ≈50 μg/ml), dialyzed overnight at 4 °C against an imidazole-free buffer, and then loaded again to Ni-NTA resin; desired digested proteins were obtained in the flow-through and wash fractions while uncleaved protein, TEV protease, and impurities remained bound to the resin. Cleaved PRPF40A proteins and GB1-tagged SF1, SF3A1, and polyproline constructs were further purified by size-exclusion chromatography on a HiLoad 16/60 Superdex 75 column (GE Healthcare) equilibrated with 20 mM sodium phosphate, pH 6.5, 100 mM NaCl and 1 mM DTT buffer. For the purification of PRPF40A WW12 in complex with SF1 peptide, cell pellets of recombinant expression for both proteins were mixed and processed together following the Ni-NTA—TEV digestion—reverse Ni-NTA—SEC-75 protocol; where the complex remained bound in a 1:1 stoichiometry throughout the whole purification (corroborated by NMR). Molecular weight of each sample was confirmed by mass spectrometry, purity was checked by PAGE-SDS, and protein concentrations were determined from the aromatic contribution to the UV absorbance spectra at 280 nm.
Experiments were conducted on a MicroCAl PEAQ-ITC (Malvern Instruments, UK) at 25 °C in 20 mM sodium phosphate pH 6.5 and 100 mM NaCl. PRPF40A was titrated into N-terminal GB1 tagged SF1 or polyproline constructs and vice versa with similar results. Protein concentrations in the cell were around 20–40 μM, while in the syringe ranged between 200 and 500 μM. Experiments were performed at least in duplicate with injections of 1.5 μL (0.4 μL for first point) separated by 150 s delays to recover thermal power baseline and continuous stirring in the cell (750 rpm) for correct mixing. The reference cell was filled with water in all experiments. Data were processed by removing the blank experiment (using digested GB1 fusion protein) and adjusted to one-site binding model with Malvern PEAQ-ITC Analysis software (Malvern Instruments, UK).

The next experiment has as its system PRPF40A N-ext-WW12. As to the kind of experiment: NMR titration (1H-15N and 1H-13C HSQC) of N-ext-WW12 with SF1 peptides. The class given is binding, human. The conditions noted are these: NMR titration of N-ext-WW12, ratios 1:1 up to 1:4. How it is done: NMR samples were prepared at concentrations ranging 100–1000 μM in buffer containing 20 mM sodium phosphate pH 6.5, 100 mM NaCl, 1 mM DTT, and 10% or 100% D2O, and measured at 25 °C (except stated otherwise) in 900-, 800-, 600- and 500-MHz Bruker Avance III NMR spectrometers equipped with cryogenic triple resonance gradient probes. Topspin 4.1.0 (Bruker) software was used for NMR data acquisition. Spectra were processed with NMRpipe 8.9[76] and analyzed using ccpnNMR Analysis 2.5 software.
^15N-labeled PRPF40A proteins (WW1, WW2, WW12, and N-extWW12) at around 100 μM concentration were titrated with increasing concentration ratios of polyproline or SF1 peptides (GB1 tagged) until reaching saturation, when possible; ^1H-^15N HSQC experiments and in some cases ^1H-^13C HSQC experiments (using double-labeled PRPF40A proteins) were acquired at each titration point. The chemical shift perturbation (CSP) was weighted using the Eqs. (1) and (2)[89].1 CSP(HN)=0.5⋅ΔδH2+0.14⋅ΔδN2 2 CSP(HC)=0.5⋅ΔδH2+0.3⋅ΔδC2

Where two headings read alike, the source gives them in different places.

T1 sequence (O75400 141-236): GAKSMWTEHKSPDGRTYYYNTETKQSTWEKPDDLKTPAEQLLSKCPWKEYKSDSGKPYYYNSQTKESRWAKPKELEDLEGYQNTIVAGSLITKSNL

On to CCNT1;CCNT2, for which the “Immunoprecipitation enrichment MUT vs WT, log2 FC” value in experiment [1] is on record as 1.3354. Turning to CDK9, the “Immunoprecipitation enrichment MUT vs WT, log2 FC” value in experiment [1] amounted to 1.401. On the same count and under the same terms, as for CDK12, the figure is 1.215; as for EFTUD2, 1.181. The same measure, in the same setting: to INF2 belongs 1.013.

In the case of MPPPPMGMMPPPPPPP [SF1_470–485], the “N (sites)” value in experiment [2] (ITC as E1, peptide in the cell, WW tandem in the syringe, N >1 = more than one WW tandem per peptide) amounted to 0.90 ± 0.16 sites. The “DH” value in experiment [2] (ITC binding enthalpy, as E1) was -13.6 ± 0.813 kcal/mol. For the same substance, the Kd in experiment [2] (25 °C, 20 mM sodium phosphate pH 6.5, 100 mM NaCl, GB1-tagged polyproline or SF1 16-mer peptide in the cell, WW tandem in the syringe, one-site model, apparent Kd, average of at least duplicates, read-out: Kd) turned out to be 13.9 ± 2.3 µM; in experiment [2] (SF1 peptides, individual value 1 (replicate 1), read-out: Kd Values with WW12, individual value), 10.9 µM; in experiment [2] (SF1 peptides, individual value 2 (replicate 2), read-out: Kd Values with WW12, individual value) it was 13.3 µM; in experiment [2] (SF1 peptides, individual value 3 (replicate 3), read-out: Kd Values with WW12, individual value) it was 14 µM; in experiment [2] (SF1 peptides, individual value 4 (replicate 4), read-out: Kd Values with WW12, individual value), 17.3 µM. Besides, the “displacement of the intramolecular N-terminal motifs (methyl signals Val 80, Val 129)” value in the experiment with PRPF40A N-ext-WW12 is reported as “cannot fully displace the intramolecular motifs”. For the substance SAE1, the “Immunoprecipitation enrichment MUT vs WT, log2 FC” value in experiment [1] worked out at 1.104.

As for SNRNP200, the “Immunoprecipitation enrichment MUT vs WT, log2 FC” value in experiment [1] was found to be 1.2097. Regarding WIZ, in experiment [1], the “Immunoprecipitation enrichment MUT vs WT, log2 FC” value worked out at 1.529.
